Test results reported in patent publication US6352976B1, “Selective inhibitors of MMP-12” (Aventis Pharmaceuticals Inc., priority 1998, dated 2002).
pKi: −log10 of the molar value. Counter-ions that a name gives are not always drawn.

Legend:
[1] = biological target: T1, MMP-12 (macrophage metalloelastase) (Homo sapiens, UniProt P39900); assay: Determination of the inhibition constant (Ki) for MMP-12, fluorogenic substrate; format: biochemical; details: pH 7.6
T1 construct: made in house
Protocol: MMP-12 (EC3.4.24.65) was cloned, expressed and purified according to Shapiro, S. D. et al., J Biol. Chem. 268, 23824-23829 (1993). […] Aliquots of MMP-12 were stored at −70° C.
The potency of inhibitors of MMP-12 was measured using either quartz cuvettes or microtiter plates. The activity of MMP-12 was measured using a fluorogenic substrate, Mca-Pro-Leu-Gly-Leu-Dpa-Ala-Arg-NH2 SEQ ID NO1, Knight, C. G. et al., FEBS Lett. 296,263-266 (1992), at 25° C. in an assay buffer containing 50 mM Tris, pH 7.6, 0.2 M sodium chloride, 50 mM calcium chloride, and 0.02% Brij-35. The increase in fluorescence due to cleavage of Gly-Leu peptide bond by MMP-12 was monitored with a Perkin-Elmer LS50B Fluorimeter (λex 328 nm, λem 393 nm, excitation slit 2.5, emission slit 10) for the cuvette assay and with a Molecular Devices Fmax fluorescence plate reader (λex 320 nm, λem 405 nm) for the microtiter plate assay. Substrate and inhibitor stock solutions were made in N,N-dimethylformamide (DMF) and 0.1% HCl-DMF, respectively.
Ki values were determined using the cuvette method by preparing a series of intermediate inhibitors solutions in 0.1% HCl-DMF and mixing the inhibitor with substrate (final concentration 2 μM) in a quartz cuvette containing 2 ml of assay buffer. MMP-12 was added to start the reaction at a concentration of 2 nM and progress curves were generated. For routine measurement of a Ki value for a reversible competitive inhibitor, the initial rates in the presence of at least four inhibitor concentrations (two concentrations above and two concentrations below the Ki) were measured [S]=2 μM (<<Km) and [MMP-12]=2 nM. Under these conditions, the measured Ki,app is close to the true Ki.
Ki values were determined using the microtiter plate method in a manner similar to that described for the cuvette method with some modifications. Four different inhibitor concentrations (50 μl in assay buffer) of each compound were added to separate wells of a microtiter plate and substrate was added (100 μl) to get a final concentration of […]. MMP-12 was added to a final concentration of 2 nM (50 μl) to start the reaction. Cleavage of substrate was recorded every 30 seconds for 30 minutes and progress curves were generated.
(§1) The Ki for a competitive inhibitor was calculated using: V0/Vi=(1+[I]/Ki,app) and Ki=Ki,app/(1+[S]/Km), where V0 is the initial rate in the absence of inhibitor, Vi is the initial rate in the presence of inhibitor at the concentration of [I], [S] is the substrate concentration, and Km is the Michaelis constant. If slow binding is observed (i.e. if the approach to the binding equilibrium is slow), the final steady-state rate rather than the initial rate is taken as Vi.

[2] = biological target: T2, MMP-3 (Stromelysin-1) (Homo sapiens, UniProt P08254); assay: Determination of inhibition constant (Ki) for MMP-3, fluorogenic substrate; format: biochemical; details: pH 7.6
T2 construct: The active MMP-3 was obtained by treatment of proMMP-3 with trypsin; endogenous in cells; host or cells: human rheumatoid synovial fibroblasts stimulated with macrophage-conditioned medium; secreted proenzyme purified from culture medium
Protocol: ProMMP-3 (EC3.4.24.17; Stromelysin-1) was purified from culture medium of human rheumatoid synovial fibroblasts stimulated with macrophage-conditioned medium according to Okada, Y. et al., J. Biol. Chem. 261, 14245-14255 (1986). The active MMP-3 was obtained by treatment of proMMP-3 with trypsin (5 μg/mL) at 37° C. for 30 minutes, followed by addition of soybean trypsin inhibitor (50 μg/mL). Aliquots of the activated MMP-3 were stored at −20° C.
The activated MMP-3 is assayed using a fluorogenic substrate, Mca-Pro-Leu-Gly-Leu-Dpa-Ala-Arg-NH2, Knight, C. G. et al., FEBS Lett. 296, 263-266 (1992), at 37° C. in an assay buffer containing 50 mM Tris, pH 7.6, 0.2 M sodium chloride, 50 mM calcium chloride, and 0.02% Brij-35. The increase in fluorescence due to cleavage of Gly-Leu peptide bond by MMP-3 was monitored with Perkin-Elmer LS50B Fluorimeter (λex 328 nm, λem 393 nm, excitation slit 2.5, emission slit 10). Substrate and inhibitor stock solutions were made in DMF and 0.1% HCl-DMF, respectively. For determination of Ki values for MMP-3 inhibitors, a series of intermediate inhibitor solutions were prepared in 0.1% HCl-DMF and 1 or 2 μL of the diluted inhibitor solution was mixed with 1 μL of 2 mM substrate solution in DMF in a quartz cuvette containing 2 mL of assay buffer. The enzyme (10 μL of 0.2 μM MMP-3 dilution in assay buffer) was added at the last to start the reaction. For routine measurement of a Ki value for a reversible, competitive inhibitor, the initial rates in the presence of at least four inhibitor concentrations (two concentrations above Ki and two concentrations below Ki) were measured using [S]=1 μM (<<Km) and [MMP-3]=1 nM. Under these conditions, the measured Ki, app is close to true Ki.
as §1, with “is” for “was”, “v0/vi=(1+[I]/Ki, app)” for “V0/Vi=(1+[I]/Ki,app)”, “Ki=Ki, app/(1+[S]/Km),” for “Ki=Ki,app/(1+[S]/Km),”, “v0” for “V0”, “vi” for “Vi”, “vi.” for “Vi.”

[3] = Table 1, Mca-Pro-Leu-Gly-Leu-Dpa-Ala-Arg-NH2, 25° C.
[4] = Table 1, Mca-Pro-Leu-Gly-Leu-Dpa-Ala-Arg-NH2, 37° C.

T2 sequence (P08254 100-477): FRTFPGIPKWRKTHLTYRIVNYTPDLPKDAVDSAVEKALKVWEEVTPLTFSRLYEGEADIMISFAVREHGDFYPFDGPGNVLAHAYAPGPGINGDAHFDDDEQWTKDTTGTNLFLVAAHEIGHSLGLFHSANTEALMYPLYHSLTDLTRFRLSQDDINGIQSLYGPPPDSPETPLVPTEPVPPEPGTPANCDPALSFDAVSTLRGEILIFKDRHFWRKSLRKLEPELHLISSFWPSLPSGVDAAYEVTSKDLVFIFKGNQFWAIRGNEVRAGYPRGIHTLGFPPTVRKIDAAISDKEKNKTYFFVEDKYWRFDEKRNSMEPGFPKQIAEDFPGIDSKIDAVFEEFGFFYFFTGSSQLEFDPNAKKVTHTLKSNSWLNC
T1 sequence (P39900 106-263 limits assumed): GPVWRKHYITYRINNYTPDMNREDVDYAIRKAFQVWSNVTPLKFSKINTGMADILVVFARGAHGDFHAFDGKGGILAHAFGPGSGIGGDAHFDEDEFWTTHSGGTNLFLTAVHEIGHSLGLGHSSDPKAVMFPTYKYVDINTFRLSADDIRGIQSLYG

Compound | pKi [1, 3] | pKi [2, 4] | pKi ([1]; Table 2 (comparative), method of Example D, 25° C.) | pKi ([2]; Table 2 (comparative), method of Example C, 37° C.)
CC(C)C[C@H](NC(=O)[C@@H](S)C(C)C)C(=O)N[C@@H](Cc1ccccc1)C(=O)O [Example 3, (S)-2-Mercapto-3-methylbutyroyl-(L)-leucyl-(L)-phenylalanine] | 7.85 | 5.85 |  | 
CSCC[C@H](NC(=O)[C@@H](S)C(C)C)C(=O)N[C@@H](Cc1ccccc1)C(=O)O [Example 4, (S)-2-Mercapto-3-methylbutyroyl-(L)-methionyl-(L)-phenylalanine] | 7.85 | 6.35 |  | 
CC(C)[C@H](S)C(=O)N[C@@H](CCCCN)C(=O)N[C@@H](Cc1ccccc1)C(=O)O [Example 5, (S)-2-Mercapto-3-methylbutyroyl-(L)-lysyl-(L)-phenylalanine trifluoroacetic acid salt] | 6.82 | 5.81 |  | 
CNC(=O)[C@H](Cc1ccccc1)NC(=O)[C@H](CCc1ccccc1)NC(=O)C(S)C(C)C (stereo partly drawn) [Example 7, (S)-2-Mercapto-3-methylbutyroyl-(L)-homo-phenylalanyl-(L)-phenylalanine N-methyl amide, reference compound] |  |  | 9.22 | 8.00
